What was measured:
[1] = test system: ECHORC (Echinochloa oryzoides); experiment: Flooded paddy, postemergence weed control; format: in vivo, Echinochloa oryzoides (Ard.) Fritsch.; conditions: postemergence weeds, rated 3-4 weeks after treatment
How it was run: (§1)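 Visual 0-9 score (stand, vigor, malformation, size, chlorosis, overall appearance vs untreated control) taken 3-4 wk post-treatment. Weeds 3-5 cm, rice 1.5-2.5 leaf stage, flood 1.5-3 cm; compound into flood water, ~0.0320-0.2500 kg/ha, aqueous/acetone 50/50 v/v.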

[2] = test system: ORYSAT (Rice, Tebonnet); experiment: Flooded paddy, post-transplant rice tolerance; format: in vivo, Oryza sativa, (L.) Tebonnet; conditions: flooded paddy, post-transplant rice, rated 3-4 weeks after treatment, 0-9 rating scale
How it was run: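 Two ten-day-old Tebonnet rice seedlings transplanted into silt loam, then flooded with water held at 1.5–3 cm above soil; herbicide applied post-transplant. Plants kept in greenhouse and rated visually 0–9 versus untreated control for stand, vigor, malformation, size and chlorosis.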

[3] = test system: CASOB (Cassia obtusifolia); experiment: Postemergence herbicidal evaluation; format: in vivo, L.
How it was run: (§2)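 Seedlings grown for about two weeks were sprayed postemergence and then kept under standard greenhouse care. Injury was rated visually 4–5 weeks after treatment on a 0–9 scale against untreated controls, and ratings from repeat tests were averaged.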

[4] = test system: CHEAL (Chenopodium album); experiment: Postemergence herbicidal evaluation; format: in vivo, L.
How it was run: as §2

[5] = test system: AMBEL (Ambrosia artemisifolia); experiment: Postemergence herbicidal evaluation; format: in vivo, L.
How it was run: as §2

[6] = test system: GLXMAW (Soybean, Williams); experiment: Preemergence herbicidal evaluation; format: in vivo, Glycine max, (L.) Merr. cv Williams; conditions: preemergence, rated 4-5 weeks after treatment
[7] = test system: IPOHE (Ipomoea hederacea); experiment: Preemergence herbicidal evaluation; format: in vivo, (L.) Jacq.; conditions: preemergence, rated 4-5 weeks after treatment
[8] = test system: CYPIR (Cyperus iria); experiment: Flooded paddy, preemergence weed control; format: in vivo; conditions: rated 3-4 weeks after treatment, 0-9 rating scale
How it was run: (§3)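 Ratings of 0-9 reflect visual comparison with a control for stand, vigor, deformity, size, chlorosis and overall look. Propagules were placed in shallow silt loam (top 0.5 cm) under a continuous 1.5–3 cm flood and grown in the greenhouse.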

[9] = test system: ORYSAT (Rice, Tebonnet); experiment: Flooded paddy, post-transplant and postemergence rice tolerance; format: in vivo, Oryza sativa, (L.) Tebonnet; conditions: post-transplant rice, rated 3-4 weeks after treatment
How it was run: as §1

[10] = test system: SAGPY (Sagittaria pygmaea); experiment: Flooded paddy, preemergence weed control; format: in vivo, L.; conditions: rated 3-4 weeks after treatment, 0-9 rating scale
How it was run: as §3

[11] = test system: MOOVA (Monochoria vaginalis); experiment: Flooded paddy, postemergence weed control; format: in vivo, Presl.; conditions: postemergence weeds, rated 3-4 weeks after treatment
How it was run: as §1

[12] = test system: GALAP (Galium aparine); experiment: Postemergence herbicidal evaluation; format: in vivo
How it was run: as §2

[13] = test system: SAGPY (Sagittaria pygmaea); experiment: Flooded paddy, postemergence weed control; format: in vivo, L.; conditions: postemergence weeds, rated 3-4 weeks after treatment
How it was run: as §1

[14] = test system: ABUTH (Abutilon theophrasti); experiment: Postemergence herbicidal evaluation; format: in vivo, Medic.
How it was run: as §2

[15] = test system: CYPIR (Cyperus iria); experiment: Flooded paddy, postemergence weed control; format: in vivo; conditions: postemergence weeds, rated 3-4 weeks after treatment
Excerpt: Results of herbicide evaluation are expressed on a rating scale (0-9). The scale is based upon a visual observation of plant stand, vigor, malformation, size, chlorosis and overall plant appearance as compared with a control.
Plastic containers containing weeds which are 3 to 5 cm tall and rice seedlings at the 1.5 to 2.5 leaf stage are flooded with water. The water is maintained at 1.5 to 3 cm above the soil surface for the duration of the experiment. Test compounds are applied as aqueous/acetone mixtures 50/50 v/v directly into the flood water to provide the equivalent of about 0.0320 to 0.2500 kg/ha of active ingredient. The treated containers are placed on greenhouse benches and cared for in accordance with conventional greenhouse procedures. Three to four weeks after treatment, the test is terminated and each container is examined and herbicidal effect rated according to the rating system provided in Example 87. The compounds evaluated are identified in Example 87 and plant species used are identified in Example 89.

[16] = test system: CYPSE (Cyperus serotinus); experiment: Flooded paddy, postemergence weed control; format: in vivo, Rottb.; conditions: postemergence weeds, rated 3-4 weeks after treatment
How it was run: as §1

[17] = test system: ZEAMX (Corn, Field); experiment: Preemergence herbicidal evaluation; format: in vivo, Zea mays, L.; conditions: preemergence, rated 4-5 weeks after treatment

COC(=O)COc1ccsc1-c1nsc2ccc(-n3c(=O)cc(C(F)(F)F)n(C)c3=O)cc12 [Compound 22, Methyl [(2-[5-[3,6-dihydro-3-methyl-2,6-dioxo-4-(trifluoromethyl)-1(2H)-pyrimidinyl]-1,2-benzisothiazol-3-yl]-3-thienyl]oxy]acetate]
herbicide rating (0-9) ECHORC ([1]; 0.0320 kg/ha into flood water): 0.0 | herbicide rating (0-9) ECHORC ([1]; 0.0620 kg/ha into flood water): 0.0 | herbicide rating (0-9) ECHORC ([1]; 0.1250 kg/ha into flood water): 0.0 | herbicidal rating, ORYSAT (rice tolerance) ([2]; rate 0.0080 kg/ha): 0.0 | herbicidal rating, ORYSAT (rice tolerance) ([2]; rate 0.0320 kg/ha): 2.0 | herbicidal rating, ORYSAT (rice tolerance) ([2]; rate 0.1250 kg/ha): 2.5 | Postemergence herbicidal rating, CASOB ([3]; rate 0.0320 kg/ha): 0.0 | Postemergence herbicidal rating, CASOB ([3]; rate 0.0620 kg/ha): 0.0 | Postemergence herbicidal rating, CASOB ([3]; rate 0.1250 kg/ha): 1.0 | Postemergence herbicidal rating, CHEAL ([4]; rate 0.0320 kg/ha): 1.0 | Postemergence herbicidal rating, CHEAL ([4]; rate 0.0620 kg/ha): 4.0 | Postemergence herbicidal rating, CHEAL ([4]; rate 0.1250 kg/ha): 4.0 | Postemergence herbicidal rating, AMBEL ([5]; rate 0.0320 kg/ha): 2.0 | Postemergence herbicidal rating, AMBEL ([5]; rate 0.0620 kg/ha): 4.0 | Postemergence herbicidal rating, AMBEL ([5]; rate 0.1250 kg/ha): 6.0 | GLXMAW preemergence herbicidal rating ([6]; Rate 0.0620 kg/ha): 0.0 | GLXMAW preemergence herbicidal rating ([6]; Rate 0.1250 kg/ha): 0.0 | GLXMAW preemergence herbicidal rating ([6]; Rate 0.2500 kg/ha): 0.0 | IPOHE preemergence herbicidal rating ([7]; Rate 0.0620 kg/ha): 0.0 | IPOHE preemergence herbicidal rating ([7]; Rate 0.1250 kg/ha): 0.0 | IPOHE preemergence herbicidal rating ([7]; Rate 0.2500 kg/ha): 0.0 | herbicidal rating, CYPIR ([8]; rate 0.0080 kg/ha): 0.0 | herbicidal rating, CYPIR ([8]; rate 0.0320 kg/ha): 2.5 | herbicidal rating, CYPIR ([8]; rate 0.1250 kg/ha): 3.0 | herbicide rating (0-9) ORYSAT (rice tolerance) ([9]; 0.0320 kg/ha into flood water): 0.0 | herbicide rating (0-9) ORYSAT (rice tolerance) ([9]; 0.0620 kg/ha into flood water): 0.0 | herbicide rating (0-9) ORYSAT (rice tolerance) ([9]; 0.1250 kg/ha into flood water): 0.0 | herbicidal rating, SAGPY ([10]; rate 0.0080 kg/ha): 0.0 | herbicidal rating, SAGPY ([10]; rate 0.0320 kg/ha): 0.0 | herbicidal rating, SAGPY ([10]; rate 0.1250 kg/ha): 0.0 | herbicide rating (0-9) MOOVA ([11]; 0.0320 kg/ha into flood water): 0.0 | herbicide rating (0-9) MOOVA ([11]; 0.0620 kg/ha into flood water): 0.0 | herbicide rating (0-9) MOOVA ([11]; 0.1250 kg/ha into flood water): 0.0 | Postemergence herbicidal rating, GALAP ([12]; rate 0.0320 kg/ha): 0.0 | Postemergence herbicidal rating, GALAP ([12]; rate 0.0620 kg/ha): 0.0 | Postemergence herbicidal rating, GALAP ([12]; rate 0.1250 kg/ha): 1.0 | herbicide rating (0-9) SAGPY ([13]; 0.0320 kg/ha into flood water): 0.0 | herbicide rating (0-9) SAGPY ([13]; 0.0620 kg/ha into flood water): 0.0 | herbicide rating (0-9) SAGPY ([13]; 0.1250 kg/ha into flood water): 0.0 | Postemergence herbicidal rating, ABUTH ([14]; rate 0.0320 kg/ha): 5.0 | Postemergence herbicidal rating, ABUTH ([14]; rate 0.0620 kg/ha): 4.0 | Postemergence herbicidal rating, ABUTH ([14]; rate 0.1250 kg/ha): 6.0 | herbicide rating (0-9) CYPIR ([15]; 0.0320 kg/ha into flood water): 0.0 | herbicide rating (0-9) CYPIR ([15]; 0.0620 kg/ha into flood water): 0.0 | herbicide rating (0-9) CYPIR ([15]; 0.1250 kg/ha into flood water): 0.0 | herbicide rating (0-9) CYPSE ([16]; 0.0320 kg/ha into flood water): 0.0 | herbicide rating (0-9) CYPSE ([16]; 0.0620 kg/ha into flood water): 0.0 | herbicide rating (0-9) CYPSE ([16]; 0.1250 kg/ha into flood water): 0.0 | ZEAMX preemergence herbicidal rating ([17]; Rate 0.0620 kg/ha): 0.0 | ZEAMX preemergence herbicidal rating ([17]; Rate 0.1250 kg/ha): 0.0 | ZEAMX preemergence herbicidal rating ([17]; Rate 0.2500 kg/ha): 1.0

Cc1cscc1-c1nsc2ccc(-n3c(=O)cc(C(F)(F)F)n(C)c3=O)cc12 [Compound 26, 1-methyl-3-[3-(4-methyl-3-thienyl)-1,2-benzisothiazol-5-yl]-6-(trifluoromethyl)uracil]
herbicide rating (0-9) ECHORC ([1]; 0.0320 kg/ha into flood water): 7.0 | herbicide rating (0-9) ECHORC ([1]; 0.0620 kg/ha into flood water): 9.0 | herbicide rating (0-9) ECHORC ([1]; 0.1250 kg/ha into flood water): 9.0 | herbicidal rating, ORYSAT (rice tolerance) ([2]; rate 0.0080 kg/ha): 0.0 | herbicidal rating, ORYSAT (rice tolerance) ([2]; rate 0.0320 kg/ha): 2.0 | herbicidal rating, ORYSAT (rice tolerance) ([2]; rate 0.1250 kg/ha): 4.3 | Postemergence herbicidal rating, CASOB ([3]; rate 0.0320 kg/ha): 4.0 | Postemergence herbicidal rating, CASOB ([3]; rate 0.0620 kg/ha): 9.0 | Postemergence herbicidal rating, CHEAL ([4]; rate 0.0320 kg/ha): 7.0 | Postemergence herbicidal rating, CHEAL ([4]; rate 0.0620 kg/ha): 9.0 | Postemergence herbicidal rating, AMBEL ([5]; rate 0.0320 kg/ha): 9.0 | Postemergence herbicidal rating, AMBEL ([5]; rate 0.0620 kg/ha): 9.0 | GLXMAW preemergence herbicidal rating ([6]; Rate 0.0620 kg/ha): 1.0 | GLXMAW preemergence herbicidal rating ([6]; Rate 0.1250 kg/ha): 3.0 | GLXMAW preemergence herbicidal rating ([6]; Rate 0.2500 kg/ha): 4.5 | IPOHE preemergence herbicidal rating ([7]; Rate 0.0620 kg/ha): 1.5 | IPOHE preemergence herbicidal rating ([7]; Rate 0.1250 kg/ha): 4.0 | IPOHE preemergence herbicidal rating ([7]; Rate 0.2500 kg/ha): 6.0 | herbicidal rating, CYPIR ([8]; rate 0.0080 kg/ha): 8.5 | herbicidal rating, CYPIR ([8]; rate 0.0320 kg/ha): 8.3 | herbicidal rating, CYPIR ([8]; rate 0.1250 kg/ha): 9.0 | herbicide rating (0-9) ORYSAT (rice tolerance) ([9]; 0.0320 kg/ha into flood water): 4.0 | herbicide rating (0-9) ORYSAT (rice tolerance) ([9]; 0.0620 kg/ha into flood water): 5.0 | herbicide rating (0-9) ORYSAT (rice tolerance) ([9]; 0.1250 kg/ha into flood water): 6.0 | herbicidal rating, SAGPY ([10]; rate 0.0080 kg/ha): 1.5 | herbicidal rating, SAGPY ([10]; rate 0.0320 kg/ha): 5.3 | herbicidal rating, SAGPY ([10]; rate 0.1250 kg/ha): 8.0 | herbicide rating (0-9) MOOVA ([11]; 0.0320 kg/ha into flood water): 4.0 | herbicide rating (0-9) MOOVA ([11]; 0.0620 kg/ha into flood water): 4.0 | herbicide rating (0-9) MOOVA ([11]; 0.1250 kg/ha into flood water): 6.0 | Postemergence herbicidal rating, GALAP ([12]; rate 0.0320 kg/ha): 5.0 | Postemergence herbicidal rating, GALAP ([12]; rate 0.0620 kg/ha): 6.0 | herbicide rating (0-9) SAGPY ([13]; 0.0320 kg/ha into flood water): 0.0 | herbicide rating (0-9) SAGPY ([13]; 0.0620 kg/ha into flood water): 0.0 | herbicide rating (0-9) SAGPY ([13]; 0.1250 kg/ha into flood water): 0.0 | Postemergence herbicidal rating, ABUTH ([14]; rate 0.0320 kg/ha): 9.0 | Postemergence herbicidal rating, ABUTH ([14]; rate 0.0620 kg/ha): 9.0 | herbicide rating (0-9) CYPIR ([15]; 0.0320 kg/ha into flood water): 9.0 | herbicide rating (0-9) CYPIR ([15]; 0.0620 kg/ha into flood water): 9.0 | herbicide rating (0-9) CYPIR ([15]; 0.1250 kg/ha into flood water): 9.0 | herbicide rating (0-9) CYPSE ([16]; 0.0320 kg/ha into flood water): 7.0 | herbicide rating (0-9) CYPSE ([16]; 0.0620 kg/ha into flood water): 7.0 | herbicide rating (0-9) CYPSE ([16]; 0.1250 kg/ha into flood water): 7.0 | ZEAMX preemergence herbicidal rating ([17]; Rate 0.0620 kg/ha): 2.5 | ZEAMX preemergence herbicidal rating ([17]; Rate 0.1250 kg/ha): 3.5 | ZEAMX preemergence herbicidal rating ([17]; Rate 0.2500 kg/ha): 6.5

— patent US6706663B2, “Herbicidal 3-heterocyclic substituted benzisothiazole and benzisoxazole compounds” (Wyeth, priority 2000, dated 2004)
